Results taken from US20090155247A1, “Methods of Using Death Receptor Agonists and EGFR Inhibitors” (priority 2005, published 2009).

Tested on: H460 non-small lung cancer cells
Test: Growth of H460 tumor xenografts in vivo
Conditions: H460 cells injected subcutaneously in mice; compared with vehicle-treated mice; treatments as provided in FIG. 6
Procedure: Mice were injected subcutaneously with H460 non-small lung cancer cells (ATCC) (5 million cells per mouse).

Compound	tumor growth
C#Cc1cccc(Nc2ncnc3cc(OCCOC)c(OCCOC)cc23)c1 [Tarceva™, N-(3-ethynylphenyl)-6,7-bis(2-methoxyethoxy)-4-quinazolinamine]	markedly delayed tumor growth
Apo2L/TRAIL: Apo2L/TRAIL polypeptide consisting of amino acids 114-281 of FIG. 1	markedly delayed tumor growth
